Measured values reported in the supplement of paper PMC10307832.

Tests used:
Assay in all cases: relative viability (nuclei count vs DMSO), 5 days (fraction); higher = more cells survive
NCI-H1355 = test system: NCI-H1355
Method in brief: (§1)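 Values are medians from duplicate plates. Each reflects relative viability, defined as the nuclei count of treated wells over that of vehicle wells. Lung cancer cell lines in 1536-well plates were pin-tool dosed one day after seeding with one drug alone or with a fixed anchor-drug dose plus five library-drug doses (not always all listed) in √10 steps, then fixed, stained and imaged at 4× after 5 days.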

Calu-6 = test system: Calu-6
Method in brief: as §1

A549 = test system: A549
Method in brief: as §1

IA-LM = test system: IA-LM
Method in brief: as §1

NCI-H1703 = test system: NCI-H1703
Method in brief: as §1

EBC-1 = test system: EBC-1
Method in brief: as §1

NCI-H1623 = test system: NCI-H1623
Method in brief: as §1

NCI-H1299 = test system: NCI-H1299
Method in brief: as §1

C[C@@H]1CN(CC(=O)Nc2ccc3c(c2)Cc2cccc(-c4cc(=O)cc(N5CCOCC5)o4)c2S3)C[C@H](C)O1 + COc1cc2c(Oc3ccc(NC(=O)C4(C(=O)Nc5ccc(F)cc5)CC4)cc3F)ccnc2cc1OCCCN1CCOCC1 [Foretinib] (partner 0.25 µM)
relative viability (NCI-H1355; first compound 0.04 µM): 0.95 | relative viability (NCI-H1355; first compound 0.1265 µM): 0.964 | relative viability (NCI-H1355; first compound 0.4 µM): 0.951 | relative viability (NCI-H1355; first compound 4 µM): 0.858 | relative viability (Calu-6; first compound 0.04 µM): 0.859 | relative viability (Calu-6; first compound 0.1265 µM): 0.841 | relative viability (Calu-6; first compound 0.4 µM): 0.896 | relative viability (Calu-6; first compound 4 µM): 0.639 | relative viability (A549; first compound 0.04 µM): 0.818 | relative viability (A549; first compound 0.1265 µM): 1.01 | relative viability (A549; first compound 0.4 µM): 0.895 | relative viability (A549; first compound 4 µM): 0.823 | relative viability (IA-LM; first compound 0.04 µM): 1.19 | relative viability (IA-LM; first compound 0.1265 µM): 1.37 | relative viability (IA-LM; first compound 0.4 µM): 1.27 | relative viability (IA-LM; first compound 4 µM): 0.56 | relative viability (NCI-H1703; first compound 0.04 µM): 0.367 | relative viability (NCI-H1703; first compound 0.1265 µM): 0.299 | relative viability (NCI-H1703; first compound 0.4 µM): 0.36 | relative viability (NCI-H1703; first compound 4 µM): 0.295 | relative viability (EBC-1; first compound 0.04 µM): 0.119 | relative viability (EBC-1; first compound 0.1265 µM): 0.113 | relative viability (EBC-1; first compound 0.4 µM): 0.102 | relative viability (EBC-1; first compound 4 µM): 0.129 | relative viability (NCI-H1623; first compound 0.04 µM): 0.771 | relative viability (NCI-H1623; first compound 0.1265 µM): 0.837 | relative viability (NCI-H1623; first compound 0.4 µM): 0.88 | relative viability (NCI-H1623; first compound 4 µM): 0.786 | relative viability (NCI-H1299; first compound 0.04 µM): 1.11 | relative viability (NCI-H1299; first compound 0.1265 µM): 1.1 | relative viability (NCI-H1299; first compound 0.4 µM): 1.06 | relative viability (NCI-H1299; first compound 4 µM): 0.995

Clc1ccc(Nc2nnc(Cc3ccncc3)c3ccccc23)cc1 [Vatalanib] + COc1cc2c(Oc3ccc(NC(=O)C4(C(=O)Nc5ccc(F)cc5)CC4)cc3F)ccnc2cc1OCCCN1CCOCC1 [Foretinib] (partner 0.25 µM)
relative viability (NCI-H1355; first compound 0.04 µM): 1.01 | relative viability (NCI-H1355; first compound 0.1265 µM): 1.01 | relative viability (NCI-H1355; first compound 0.4 µM): 1.02 | relative viability (NCI-H1355; first compound 1.265 µM): 0.847 | relative viability (NCI-H1355; first compound 4 µM): 0.971 | relative viability (Calu-6; first compound 0.04 µM): 0.967 | relative viability (Calu-6; first compound 0.1265 µM): 0.765 | relative viability (Calu-6; first compound 0.4 µM): 0.926 | relative viability (Calu-6; first compound 1.265 µM): 0.869 | relative viability (Calu-6; first compound 4 µM): 0.813 | relative viability (A549; first compound 0.04 µM): 1.06 | relative viability (A549; first compound 0.1265 µM): 0.909 | relative viability (A549; first compound 0.4 µM): 1.01 | relative viability (A549; first compound 1.265 µM): 0.881 | relative viability (A549; first compound 4 µM): 0.948 | relative viability (IA-LM; first compound 0.04 µM): 1.16 | relative viability (IA-LM; first compound 0.1265 µM): 1.16 | relative viability (IA-LM; first compound 0.4 µM): 1.05 | relative viability (IA-LM; first compound 1.265 µM): 0.919 | relative viability (IA-LM; first compound 4 µM): 1.06 | relative viability (NCI-H1703; first compound 0.04 µM): 0.323 | relative viability (NCI-H1703; first compound 0.4 µM): 0.335 | relative viability (NCI-H1703; first compound 1.265 µM): 0.34 | relative viability (NCI-H1703; first compound 4 µM): 0.363 | relative viability (EBC-1; first compound 0.04 µM): 0.111 | relative viability (EBC-1; first compound 0.1265 µM): 0.109 | relative viability (EBC-1; first compound 0.4 µM): 0.0892 | relative viability (EBC-1; first compound 1.265 µM): 0.0958 | relative viability (EBC-1; first compound 4 µM): 0.118 | relative viability (NCI-H1623; first compound 0.04 µM): 0.816 | relative viability (NCI-H1623; first compound 0.1265 µM): 0.861 | relative viability (NCI-H1623; first compound 0.4 µM): 0.794 | relative viability (NCI-H1623; first compound 1.265 µM): 0.854 | relative viability (NCI-H1623; first compound 4 µM): 0.783 | relative viability (NCI-H1299; first compound 0.04 µM): 1.1 | relative viability (NCI-H1299; first compound 0.1265 µM): 1.07 | relative viability (NCI-H1299; first compound 0.4 µM): 1.15 | relative viability (NCI-H1299; first compound 1.265 µM): 1.11 | relative viability (NCI-H1299; first compound 4 µM): 1.11

COc1cc(N2CCC(C(N)=O)CC2)ccc1Nc1nc(N)c(Cl)c(Nc2ccccc2S(=O)(=O)C(C)C)n1 [HG-5-88-01] + COc1cc2c(Oc3ccc(NC(=O)C4(C(=O)Nc5ccc(F)cc5)CC4)cc3F)ccnc2cc1OCCCN1CCOCC1 [Foretinib] (partner 0.25 µM)
relative viability (NCI-H1355; first compound 0.04 µM): 1.01 | relative viability (NCI-H1355; first compound 0.1265 µM): 1.05 | relative viability (NCI-H1355; first compound 0.4 µM): 0.929 | relative viability (NCI-H1355; first compound 1.265 µM): 0.96 | relative viability (NCI-H1355; first compound 4 µM): 0.696 | relative viability (Calu-6; first compound 0.04 µM): 0.865 | relative viability (Calu-6; first compound 0.1265 µM): 0.879 | relative viability (Calu-6; first compound 0.4 µM): 0.866 | relative viability (Calu-6; first compound 1.265 µM): 0.793 | relative viability (Calu-6; first compound 4 µM): 0.686 | relative viability (A549; first compound 0.04 µM): 0.984 | relative viability (A549; first compound 0.1265 µM): 0.861 | relative viability (A549; first compound 0.4 µM): 0.993 | relative viability (A549; first compound 1.265 µM): 0.87 | relative viability (A549; first compound 4 µM): 0.228 | relative viability (IA-LM; first compound 0.04 µM): 1.28 | relative viability (IA-LM; first compound 0.1265 µM): 1.22 | relative viability (IA-LM; first compound 0.4 µM): 1.05 | relative viability (IA-LM; first compound 1.265 µM): 0.885 | relative viability (IA-LM; first compound 4 µM): 1.18 | relative viability (NCI-H1703; first compound 0.04 µM): 0.41 | relative viability (NCI-H1703; first compound 0.1265 µM): 0.349 | relative viability (NCI-H1703; first compound 1.265 µM): 0.275 | relative viability (NCI-H1703; first compound 4 µM): 0.331 | relative viability (EBC-1; first compound 0.04 µM): 0.0975 | relative viability (EBC-1; first compound 0.4 µM): 0.12 | relative viability (EBC-1; first compound 1.265 µM): 0.11 | relative viability (EBC-1; first compound 4 µM): 0.105 | relative viability (NCI-H1623; first compound 0.04 µM): 0.925 | relative viability (NCI-H1623; first compound 0.1265 µM): 0.906 | relative viability (NCI-H1623; first compound 0.4 µM): 0.845 | relative viability (NCI-H1623; first compound 4 µM): 0.773 | relative viability (NCI-H1299; first compound 0.04 µM): 1.05 | relative viability (NCI-H1299; first compound 0.1265 µM): 1.11 | relative viability (NCI-H1299; first compound 0.4 µM): 1.1 | relative viability (NCI-H1299; first compound 1.265 µM): 1.07 | relative viability (NCI-H1299; first compound 4 µM): 1.1
